Test results as given in ChEMBL document CHEMBL4368915, “Synthesis and Biological Investigation of Phenothiazine-Based Benzhydroxamic Acids as Selective Histone Deacetylase 6 Inhibitors” (J Med Chem, 2019).
Activity calls are given as the source filed them. The rule behind the calls is not given here.

Columns and labels:
[1] = molecular target: T1, Protein deacetylase HDAC6 (Homo sapiens, UniProt Q9UBN7)
T1 sequence (Q9UBN7 whole entry): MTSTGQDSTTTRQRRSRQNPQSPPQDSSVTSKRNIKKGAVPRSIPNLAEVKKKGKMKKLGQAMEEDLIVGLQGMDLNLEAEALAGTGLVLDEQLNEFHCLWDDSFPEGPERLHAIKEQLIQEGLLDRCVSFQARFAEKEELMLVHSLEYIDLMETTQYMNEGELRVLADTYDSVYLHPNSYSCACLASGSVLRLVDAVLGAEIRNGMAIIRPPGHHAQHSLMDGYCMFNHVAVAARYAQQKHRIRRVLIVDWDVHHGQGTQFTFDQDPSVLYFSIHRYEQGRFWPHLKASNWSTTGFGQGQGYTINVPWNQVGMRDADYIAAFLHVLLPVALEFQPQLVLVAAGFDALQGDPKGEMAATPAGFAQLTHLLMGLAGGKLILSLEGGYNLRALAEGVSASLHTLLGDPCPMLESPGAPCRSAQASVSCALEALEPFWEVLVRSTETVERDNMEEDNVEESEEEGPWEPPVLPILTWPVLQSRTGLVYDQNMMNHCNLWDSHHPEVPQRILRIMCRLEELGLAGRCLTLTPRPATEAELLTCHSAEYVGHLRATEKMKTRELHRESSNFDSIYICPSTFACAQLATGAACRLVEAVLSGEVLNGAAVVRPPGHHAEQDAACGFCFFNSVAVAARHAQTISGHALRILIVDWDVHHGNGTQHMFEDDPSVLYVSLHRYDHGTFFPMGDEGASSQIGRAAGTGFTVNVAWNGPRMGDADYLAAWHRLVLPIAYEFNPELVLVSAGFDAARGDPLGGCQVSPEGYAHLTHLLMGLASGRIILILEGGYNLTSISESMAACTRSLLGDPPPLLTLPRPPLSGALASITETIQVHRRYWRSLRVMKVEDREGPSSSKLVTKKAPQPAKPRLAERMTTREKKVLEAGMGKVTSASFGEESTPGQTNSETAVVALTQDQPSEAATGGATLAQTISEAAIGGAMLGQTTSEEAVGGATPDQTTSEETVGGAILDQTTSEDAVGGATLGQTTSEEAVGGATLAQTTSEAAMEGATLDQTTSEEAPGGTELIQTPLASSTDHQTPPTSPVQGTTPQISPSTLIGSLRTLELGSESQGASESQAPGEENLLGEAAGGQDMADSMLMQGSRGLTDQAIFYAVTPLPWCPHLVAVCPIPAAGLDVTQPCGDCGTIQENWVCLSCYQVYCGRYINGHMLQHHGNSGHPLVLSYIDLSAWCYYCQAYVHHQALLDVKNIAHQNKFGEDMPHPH

Histone deacetylase 1 = Histone deacetylase 1 (Homo sapiens, UniProt Q13547)
HepaRG = experiment: (§1) Cytotoxicity against human HepaRG cells assessed as cell viability at 100 uM after 24 hrs by CellTiter blue-reagent based assay relative to control; conditions: heparg, 24 h, 100 µM
[2] = molecular target: Histone deacetylase 4 (Homo sapiens) (UniProt P56524); experiment: Inhibition of recombinant N-terminal GST/His-tagged human HDAC4 (627 to 1084 residues) expressed in baculovirus expression system at 10 uM using fluorogenic ZMTFAL as substrate incubated for 90 mins by fluorescence assay relative to control
[3] = Half life in human liver microsomes at 2 uM by LC-MS/MS analysis; assay type: ADME, Microsome
[4] = Intrinsic clearance in human liver microsomes at 2 uM by LC-MS/MS analysis; assay type: ADME, Microsome
CYP1A2 = molecular target: T2, CYP1A2 (Homo sapiens, UniProt P05177); experiment: Inhibition of human CYP1A2 in human liver microsomes at 10 uM relative to control; assay type: ADME
T2 sequence (P05177 whole entry): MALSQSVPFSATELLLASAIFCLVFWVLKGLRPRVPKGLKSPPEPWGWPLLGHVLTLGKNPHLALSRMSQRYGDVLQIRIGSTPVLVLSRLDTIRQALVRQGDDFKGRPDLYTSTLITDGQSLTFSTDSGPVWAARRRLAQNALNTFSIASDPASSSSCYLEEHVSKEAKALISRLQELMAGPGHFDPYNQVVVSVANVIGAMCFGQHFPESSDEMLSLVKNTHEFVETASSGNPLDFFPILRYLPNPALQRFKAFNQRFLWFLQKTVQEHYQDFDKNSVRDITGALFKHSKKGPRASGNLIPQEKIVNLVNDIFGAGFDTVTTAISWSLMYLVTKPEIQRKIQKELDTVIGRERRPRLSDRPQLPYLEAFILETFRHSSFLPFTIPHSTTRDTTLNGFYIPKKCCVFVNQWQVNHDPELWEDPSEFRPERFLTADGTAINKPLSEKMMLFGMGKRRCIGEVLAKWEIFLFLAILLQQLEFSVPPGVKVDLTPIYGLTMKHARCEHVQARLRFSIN

CYP2C9 = CYP2C9 (Homo sapiens, UniProt P11712); experiment: Inhibition of human CYP2C9 in human liver microsomes at 10 uM relative to control; assay type: ADME
CYP2C19 = CYP2C19 (Homo sapiens, UniProt P33261); experiment: Inhibition of human CYP2C19 in human liver microsomes at 10 uM relative to control; assay type: ADME
CYP2D6 = CYP2D6 (Homo sapiens, UniProt P10635); experiment: Inhibition of human CYP2D6 in human liver microsomes at 10 uM relative to control; assay type: ADME
Huh-7 = experiment: Antiproliferative activity against human HuH7 cells assessed as inhibition of cell proliferation at 10 to 100 uM after 72 hrs by CellTiter blue-reagent based assay; assay type: functional
MDA-MB-231 [5] = experiment: Antiproliferative activity against human MDA-MB-231 cells assessed as inhibition of cell proliferation at 10 to 100 uM after 72 hrs by CellTiter blue-reagent based assay; assay type: functional
T-24 [6] = experiment: Antiproliferative activity against human T24 cells assessed as inhibition of cell proliferation at 10 to 100 uM after 72 hrs by CellTiter blue-reagent based assay; assay type: functional
T-24 [7] = experiment: Synergistic potentiation of Bortezomib-induced antiproliferative activity against human T24 cells assessed as effect on cell index, at 1 uM incubated for 24 hrs by cell impedance based assay; assay type: functional
[8] = Stability in human liver microsomes assessed as compound remaining at 2 uM measured up to 20 mins by LC-MS/MS analysis; assay type: ADME, Microsome
Histone deacetylase 8 = molecular target: T3, Histone deacetylase 8 (Homo sapiens, UniProt Q9BY41)
T3 sequence (Q9BY41 whole entry): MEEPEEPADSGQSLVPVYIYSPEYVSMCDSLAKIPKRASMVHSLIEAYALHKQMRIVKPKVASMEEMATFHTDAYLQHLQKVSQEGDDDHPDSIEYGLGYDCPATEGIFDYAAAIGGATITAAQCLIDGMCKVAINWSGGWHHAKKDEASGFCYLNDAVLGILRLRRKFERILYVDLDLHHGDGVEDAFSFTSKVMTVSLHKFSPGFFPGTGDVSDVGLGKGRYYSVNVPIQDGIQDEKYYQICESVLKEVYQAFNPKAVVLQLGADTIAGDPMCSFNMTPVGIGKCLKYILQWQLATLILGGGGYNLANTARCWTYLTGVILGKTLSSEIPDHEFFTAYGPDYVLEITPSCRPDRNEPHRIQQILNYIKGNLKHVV

[9] = Drug level in human liver microsomes treated with 2 uM 4-[(10H-Phenothiazin-10-yl)methyl]-N-hydroxybenzamide assessed as compound formation after 40 mins by LC-MS/MS analysis; assay type: ADME, Microsome
[10] = molecular target: T4, Histone deacetylase 8 (Homo sapiens) (UniProt Q9BY41); experiment: Inhibition of recombinant human HDAC8 expressed in baculovirus expression system at 1 uM using fluorogenic Arg-His-Lys(Ac)-Lys(Ac) as substrate incubated for 90 mins by fluorescence assay
T4 sequence (whole entry): T3 sequence (Q9BY41 whole entry)

CYP3A4 = CYP3A4 (Homo sapiens, UniProt P08684); experiment: Inhibition of human CYP3A4 in human liver microsomes at 10 uM relative to control; assay type: ADME
[11] = Stability in human liver microsomes assessed as compound remaining at 2 uM after 40 mins by LC-MS/MS analysis; assay type: ADME, Microsome; conditions: read-out: Stability
[12] = Drug metabolism in human liver microsomes assessed as N-Hydroxy-4-[(5-oxido-10H-Phenothiazin-10-yl)methyl]-benzamide formation at 2 uM after 40 mins by LC-MS/MS analysis; assay type: ADME, Microsome
[13] = Drug metabolism in human liver microsomes assessed as 4-[(5,5-Dioxido-10H-phenothiazin-10-yl)methyl]-N-hydroxybenzamide formation at 2 uM after 40 mins by LC-MS/MS analysis; assay type: ADME, Microsome
MDA-MB-231 [14] = experiment: Induction of apoptosis in human MDA-MB-231 cells at 1 to 10 uM after 48 hrs by propidium iodide-staining based FACS analysis; assay type: functional, cell-based
T-24 [15] = experiment: Induction of apoptosis in human T24 cells at 1 to 10 uM after 48 hrs by propidium iodide-staining based FACS analysis; assay type: functional, cell-based
HL-60 = experiment: Antiproliferative activity against human HL60 cells after 72 hrs by CellTiter blue-reagent based assay; assay type: functional, cell-based
MCF7 = experiment: Antiproliferative activity against human MCF7 cells after 72 hrs by CellTiter blue-reagent based assay; assay type: functional, cell-based
THP-1 = experiment: Antiproliferative activity against human THP1 cells after 72 hrs by CellTiter blue-reagent based assay; assay type: functional, cell-based
[16] = as §1; conditions: HepaRG cells, read-out: Activity

Histone deacetylase 4 (Homo sapiens), sequence (P56524 whole entry, the tested form may be a part): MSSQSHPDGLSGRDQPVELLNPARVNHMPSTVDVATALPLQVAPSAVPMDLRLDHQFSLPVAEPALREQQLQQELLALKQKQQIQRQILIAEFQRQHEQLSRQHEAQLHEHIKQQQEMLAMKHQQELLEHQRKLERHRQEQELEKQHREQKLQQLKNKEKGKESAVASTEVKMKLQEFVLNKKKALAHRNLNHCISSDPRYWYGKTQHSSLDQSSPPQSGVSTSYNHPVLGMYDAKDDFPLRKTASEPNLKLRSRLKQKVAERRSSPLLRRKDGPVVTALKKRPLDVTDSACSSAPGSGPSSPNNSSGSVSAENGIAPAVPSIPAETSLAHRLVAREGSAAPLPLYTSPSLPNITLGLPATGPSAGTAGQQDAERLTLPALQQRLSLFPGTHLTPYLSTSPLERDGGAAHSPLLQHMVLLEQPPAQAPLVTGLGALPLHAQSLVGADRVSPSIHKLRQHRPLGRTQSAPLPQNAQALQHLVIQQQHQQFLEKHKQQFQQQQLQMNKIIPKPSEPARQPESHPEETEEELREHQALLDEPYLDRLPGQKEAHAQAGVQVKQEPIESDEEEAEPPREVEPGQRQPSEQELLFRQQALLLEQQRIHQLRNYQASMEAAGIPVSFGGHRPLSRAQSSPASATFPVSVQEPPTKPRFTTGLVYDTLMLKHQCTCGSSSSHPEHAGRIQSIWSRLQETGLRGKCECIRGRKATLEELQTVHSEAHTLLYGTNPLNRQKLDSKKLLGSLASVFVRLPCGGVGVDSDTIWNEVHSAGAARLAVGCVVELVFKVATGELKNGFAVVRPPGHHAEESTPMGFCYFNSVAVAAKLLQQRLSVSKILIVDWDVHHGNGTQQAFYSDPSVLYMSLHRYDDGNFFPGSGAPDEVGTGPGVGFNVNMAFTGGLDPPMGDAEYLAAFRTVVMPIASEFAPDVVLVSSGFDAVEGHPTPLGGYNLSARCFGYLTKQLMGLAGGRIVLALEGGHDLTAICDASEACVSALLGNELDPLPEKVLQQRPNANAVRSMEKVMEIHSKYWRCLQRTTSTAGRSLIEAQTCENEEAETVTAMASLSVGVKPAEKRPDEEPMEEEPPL
Histone deacetylase 1, sequence (Q13547 whole entry): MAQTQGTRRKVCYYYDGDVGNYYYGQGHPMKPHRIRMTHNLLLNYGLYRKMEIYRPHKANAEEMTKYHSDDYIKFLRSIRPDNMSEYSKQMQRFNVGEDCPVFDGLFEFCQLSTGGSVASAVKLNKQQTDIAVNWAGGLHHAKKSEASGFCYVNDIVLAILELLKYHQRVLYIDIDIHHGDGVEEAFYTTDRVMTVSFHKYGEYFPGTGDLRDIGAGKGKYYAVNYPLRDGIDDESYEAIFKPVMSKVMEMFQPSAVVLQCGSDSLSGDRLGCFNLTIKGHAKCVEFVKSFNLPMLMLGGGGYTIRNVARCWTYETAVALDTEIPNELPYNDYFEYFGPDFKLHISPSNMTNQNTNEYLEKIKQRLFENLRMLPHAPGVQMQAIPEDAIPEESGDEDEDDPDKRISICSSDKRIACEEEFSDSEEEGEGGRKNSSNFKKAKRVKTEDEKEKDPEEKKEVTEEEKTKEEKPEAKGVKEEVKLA
CYP2C19, sequence (P33261 whole entry): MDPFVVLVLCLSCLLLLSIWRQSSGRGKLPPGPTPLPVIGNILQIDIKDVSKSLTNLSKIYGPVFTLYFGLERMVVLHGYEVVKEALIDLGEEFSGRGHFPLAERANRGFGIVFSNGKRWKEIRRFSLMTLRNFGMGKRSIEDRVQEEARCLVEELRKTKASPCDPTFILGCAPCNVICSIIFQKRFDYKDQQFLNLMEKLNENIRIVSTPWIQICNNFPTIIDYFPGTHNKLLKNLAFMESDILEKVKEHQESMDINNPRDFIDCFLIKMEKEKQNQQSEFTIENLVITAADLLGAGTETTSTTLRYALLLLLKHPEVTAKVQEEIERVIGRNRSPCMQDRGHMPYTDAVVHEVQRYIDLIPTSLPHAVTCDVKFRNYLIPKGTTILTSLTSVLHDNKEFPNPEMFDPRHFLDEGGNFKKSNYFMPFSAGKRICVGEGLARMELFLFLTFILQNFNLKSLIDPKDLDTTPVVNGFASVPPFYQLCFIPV
CYP2C9, sequence (P11712 whole entry): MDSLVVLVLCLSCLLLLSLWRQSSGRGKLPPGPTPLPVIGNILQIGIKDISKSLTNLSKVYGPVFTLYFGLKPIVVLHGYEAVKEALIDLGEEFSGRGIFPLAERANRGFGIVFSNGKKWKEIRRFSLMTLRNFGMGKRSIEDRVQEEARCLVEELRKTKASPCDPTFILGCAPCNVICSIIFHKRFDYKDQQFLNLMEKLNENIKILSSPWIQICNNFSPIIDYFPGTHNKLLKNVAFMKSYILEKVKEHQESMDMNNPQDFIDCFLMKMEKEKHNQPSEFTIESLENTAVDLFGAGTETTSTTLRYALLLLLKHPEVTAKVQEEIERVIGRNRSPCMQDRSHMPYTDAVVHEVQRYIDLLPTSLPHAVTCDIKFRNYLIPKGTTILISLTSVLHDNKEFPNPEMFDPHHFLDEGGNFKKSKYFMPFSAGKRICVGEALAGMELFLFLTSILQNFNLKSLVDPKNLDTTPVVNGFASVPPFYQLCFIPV
CYP2D6, sequence (P10635 whole entry): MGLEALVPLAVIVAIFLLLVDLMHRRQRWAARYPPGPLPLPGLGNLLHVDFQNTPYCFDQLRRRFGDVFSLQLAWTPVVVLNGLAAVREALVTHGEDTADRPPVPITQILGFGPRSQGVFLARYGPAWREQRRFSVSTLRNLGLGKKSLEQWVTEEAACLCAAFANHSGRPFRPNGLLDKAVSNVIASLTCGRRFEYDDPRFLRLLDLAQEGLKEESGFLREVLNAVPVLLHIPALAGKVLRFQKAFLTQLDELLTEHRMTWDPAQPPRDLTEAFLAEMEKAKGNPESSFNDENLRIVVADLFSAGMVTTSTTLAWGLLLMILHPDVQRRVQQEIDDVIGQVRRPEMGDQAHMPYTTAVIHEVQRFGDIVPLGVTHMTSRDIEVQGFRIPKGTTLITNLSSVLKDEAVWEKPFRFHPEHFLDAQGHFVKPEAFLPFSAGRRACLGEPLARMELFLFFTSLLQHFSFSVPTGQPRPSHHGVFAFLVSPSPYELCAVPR
CYP3A4, sequence (P08684 whole entry): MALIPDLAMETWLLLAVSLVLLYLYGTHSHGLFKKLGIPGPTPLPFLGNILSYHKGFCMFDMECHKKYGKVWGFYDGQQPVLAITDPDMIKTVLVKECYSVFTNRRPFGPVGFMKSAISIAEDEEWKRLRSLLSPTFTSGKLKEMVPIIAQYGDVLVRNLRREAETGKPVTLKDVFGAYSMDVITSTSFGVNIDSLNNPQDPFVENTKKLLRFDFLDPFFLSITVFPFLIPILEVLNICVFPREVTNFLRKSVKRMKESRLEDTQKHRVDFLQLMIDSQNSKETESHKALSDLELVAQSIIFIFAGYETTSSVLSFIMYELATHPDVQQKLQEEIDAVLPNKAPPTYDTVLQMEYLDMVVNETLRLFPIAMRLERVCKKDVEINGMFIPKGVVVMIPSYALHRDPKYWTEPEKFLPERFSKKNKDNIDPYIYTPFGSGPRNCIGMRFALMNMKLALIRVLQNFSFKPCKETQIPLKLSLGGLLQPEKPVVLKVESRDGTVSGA

SMILES: O=C(NO)c1ccc(CN2c3ccncc3Sc3ccncc32)cc1
- IC50 [1]: 9 nM

SMILES: O=C(NO)c1ccc(CN2c3ccccc3Sc3ccc(Cl)cc32)cc1
- IC50 (Histone deacetylase 1): 2.95 µM
- IC50 [1]: 12 nM

SMILES: O=C(NO)c1ccc(CN2c3ccccc3Sc3cccc(Cl)c32)cc1
- IC50 (Histone deacetylase 1): 5.76 µM
- IC50 [1]: 16 nM

SMILES: O=C(NO)c1ccc(CCN2c3ccccc3Sc3ccccc32)cc1
- IC50 [1]: 136 nM

SMILES: O=C(NO)c1ccc(CN2c3ccccc3Sc3cccnc32)cc1
- Activity (HepaRG): Non-Toxic
- inhibition [2]: < 20%
- t1/2 [3]: 148 min
- CLH [4]: 11 µL/min/mg
- inhibition at 10 µM (CYP1A2): 15.2%
- inhibition at 10 µM (CYP2C9): 3.4%
- inhibition at 10 µM (CYP2C19): 27.7%
- inhibition at 10 µM (CYP2D6): 12%
- inhibition (Huh-7): Active
- inhibition (MDA-MB-231 [5]): Active
- inhibition (T-24 [6]): Active
- Activity (T-24 [7]): inactive
- Stability [8]: Stable
- IC50 (Histone deacetylase 1): 2.69 µM
- IC50 (Histone deacetylase 8): 3100 nM

SMILES: O=C(NO)c1ccc(N2c3ccccc3Sc3ccccc32)cc1
- IC50 [1]: 2670 nM

SMILES: O=C(NO)c1ccc(CN2c3ccccc3Sc3ccnnc32)cc1
- IC50 [1]: 11 nM

SMILES: O=C(NO)c1ccc(CN2c3ccccc3S(=O)(=O)c3ccccc32)cc1
- Drug uptake [9]: Active
- IC50 (Histone deacetylase 1): 3.99 µM

SMILES: Cn1c(=O)c2c(ncn2C)n(C)c1=O [CAFFEINE]
- t1/2 [3]: 373 min
- CLH [4]: 4 µL/min/mg

SMILES: CCSc1ccc2c(c1)N(Cc1ccc(C(=O)NO)cc1)c1ccccc1S2
- IC50 (Histone deacetylase 1): 7.2 µM
- IC50 [1]: 31 nM

SMILES: O=C(NO)c1ccc(CN2c3ccccc3Sc3ccncc32)cc1
- IC50 [1]: 7 nM

SMILES: O=C(NO)c1ccc(CN2c3ccccc3Sc3cc(Cl)nnc32)cc1
- IC50 [1]: 18 nM

SMILES: O=C(NO)c1ccc(CN2c3ccccc3Sc3ccc(C(F)(F)F)cc32)cc1
- IC50 (Histone deacetylase 1): 7.49 µM
- IC50 [1]: 25 nM

SMILES: O=C(NO)c1ccc(CN2c3ccccc3[S+]([O-])c3ccccc32)cc1
- Drug uptake [9]: Active
- IC50 (Histone deacetylase 1): 6.81 µM
- IC50 [1]: 77 nM

SMILES: O=C(NO)c1ccc(CN2N=CC=C3Sc4ccccc4N=C32)cc1
- IC50 [1]: 19 nM

SMILES: COc1ccc2c(c1)N(Cc1ccc(C(=O)NO)cc1)c1ccccc1S2
- IC50 (Histone deacetylase 1): 2.07 µM
- IC50 [1]: 10 nM

SMILES: CN1CCC2=C(C1)N(Cc1ccc(C(=O)NO)cc1)c1ccccc1S2
- inhibition [10]: 66%
- IC50 (Histone deacetylase 1): 0.98 µM
- IC50 [1]: 32 nM

SMILES: O=C(NO)c1ccc(CN2c3cccnc3Sc3cccnc32)cc1
- IC50 [1]: 14 nM

SMILES: O=C(CCCCCCC(=O)Nc1ccc([C@H]2O[C@@H](CSc3nc(-c4ccccc4)c(-c4ccccc4)o3)C[C@@H](c3ccc(CO)cc3)O2)cc1)NO [TUBACIN]
- IC50 (Histone deacetylase 1): 1.01 µM

SMILES: Cc1nc2c(s1)Sc1ccccc1N2Cc1ccc(C(=O)NO)cc1
- IC50 [1]: 37 nM

SMILES: O=C(NO)c1ccc(CN2c3ccccc3Sc3nccnc32)cc1
- IC50 [1]: 17 nM

SMILES: O=C(NO)c1ccc(CN2N=C(Cl)C=C3Sc4ccccc4N=C32)cc1
- IC50 [1]: 115 nM

SMILES: O=C(NO)c1ccc(CN2c3ccccc3Sc3ccccc32)cc1
- Activity (HepaRG): Non-Toxic
- inhibition [2]: < 20%
- t1/2 [3]: 117 min
- CLH [4]: 14 µL/min/mg
- inhibition at 10 µM (CYP1A2): 20%
- inhibition at 10 µM (CYP2C9): 24.4%
- inhibition at 10 µM (CYP2C19): 36.4%
- inhibition at 10 µM (CYP2D6): 45.4%
- inhibition at 10 µM (CYP3A4): 24.3%
- Activity (T-24 [7]): inactive
- remaining at 40 min, 2 µM [11]: 77%
- Drug metabolism [12]: Metabolite_Detected
- Drug metabolism [13]: Metabolite_Detected
- IC50 (Histone deacetylase 1): 5.08 µM
- IC50 (Histone deacetylase 8): 1480 nM

SMILES: O=C(CCCCCCC(=O)Nc1ccccc1)NO
- Activity (MDA-MB-231 [14]): Active
- Activity (T-24 [15]): Active
- Activity (HL-60): Active
- Activity (MCF7): Active
- Activity (THP-1): Active

SMILES: O=C(NO)c1ccc(CN2c3ccncc3Sc3ncccc32)cc1
- viability at 24 h, 100 µM [16]: 80%
- inhibition [2]: < 20%
- inhibition (Huh-7): Active
- inhibition (MDA-MB-231 [5]): Active
- inhibition (T-24 [6]): Active
- Activity (T-24 [7]): inactive
- IC50 (Histone deacetylase 1): 3.34 µM
- IC50 [1]: 12 nM
- IC50 (Histone deacetylase 8): 2000 nM
